Experimental data taken from patent publication US9089539B2 (Indiana University Research and Technology Corporation, priority 2008, dated 2015).
Bridges are numbered along the chain shown (N, C = ends). Where no end group is shown, it is not given here. Side-chain parts run from the residue outwards. [ ]: non-standard residue; d: D form. The star is where a group is joined. Desaminohistidyl = O=C(CCc1c[nH]cn1)*; PLA = phenyl lactic acid; Aib = CC(C)(N)C(=O)O

What was measured:
[1] = Cleavage of dipeptide-extended prodrugs on incubation in PBS (HPLC/MS); assay type: physicochemical; conditions: buffer
Method: Preliminary analyses were performed with these crude peptides to get an approximation of their relative conversion rates in Phosphate Buffered Saline (PBS) buffer (pH, 7.2) using high performance liquid chromatography (HPLC) and MALDI analysis. The crude peptide samples were dissolved in the PBS buffer at a concentration of 1 mg/ml. 1 ml of the resulting solution was stored in a 1.5 ml HPLC vial which was then sealed and incubated at 37° C. Aliquots of 100 μl were drawn out at various time intervals, cooled to room temperature and analyzed by HPLC.
HPLC analyses were performed on a 150 mm×4.6 mm C18 Vydac column. The flow rate was 1 ml/min. […] A linear gradient was employed (40% to 70% B in 15 minutes).
Each N-terminally extended peptide was incubated in PBS buffer at 37° C. for approximately a week. Alternatively, each peptide was heated for 120 min at 100° C. to accelerate the amide bond cleavage. Cleavage of the prodrugs was analyzed by reverse phase HPLC and MS.
To explore the possible formation of 2,5-diketopiperazine (DKP) or 2,5-diketomorpholine (DMP) and the simultaneous generation of HO-F^7,GLP(8-36)-CEX, the prodrug was incubated in PBS buffer at 37° C. for approximately a week. The peptide was also heated at 100° C. to determine the susceptibility to cleavage (Table 4).

[2] = biological target: T1, GLP-1 receptor (Homo sapiens, UniProt P43220); assay: Luciferase-based reporter gene assay for cAMP detection, GLP-1 receptor; assay type: cell-based
T1 construct: expressed in transfected cells; host or cells: HEK293

[3] = system: blood glucose; assay: Glucose challenge in DIO mice after intraperitoneal peptide injection (Examples 5-7); assay type: in vivo; conditions: 2 nmol/kg
Method: Six groups of diabetes-induced obesity (DIO) mice (eight mice per group) having an initial average body weight of 49.5 g were intraperitoneally injected with 2 nmol/kg of a PBS vehicle control or one of Peptides A-E described below:
Fifteen minutes after injection with one of the compounds or with vehicle control (at time point 0), a 25% (w/v) glucose saline solution was injected at a dose of 1.5 g per kg of body weight. Blood glucose concentrations of the mice were measured at the time of injection of the compound or vehicle control, at the time of glucose injection, and at 15, 30, 60, and 120 minutes after glucose injection.
Blood glucose levels of the mice were measured as described in Example 5.

[4] = Body weight and food intake of DIO mice over one week (Example 8); assay type: in vivo; conditions: 15 or 70 nmol/kg; for total food intake: seven days after injection
Method: (§1) Nine groups of diabetes-induced obesity (DIO) mice (8 mice per group) having an initial average body weight of 56 g were intraperitoneally injected once and followed for one week with 15 or 70 nmol/kg of Peptides Y, Z, F-Peg, and G-Peg described below or PBS vehicle control.
The body weight of each mouse of each group was measured on 1, 3, 5, and 7 days after injection with the vehicle control or peptide. Total change in body weight was calculated by subtracting the average body weight of a group at the time of injection with vehicle or peptide from the average body weight of the group seven days after injection. Food intake by each group of mice was measured during the course of the week as well. Total food intake was measured seven days after injection with vehicle control or peptide. […] The Ser11 substitution or the des-amino His7 reduces total efficacy.

[5] = system: blood glucose; assay: Glucose challenge in DIO mice after pegylated peptide injection (Example 8); assay type: in vivo; conditions: 15 or 70 nmol/kg, glucose injected sixty minutes after peptide
Method: as §1
Sixty minutes after injection with one of the peptides or with vehicle control (at time point 0), a 25% (w/v) glucose saline solution was injected at a dose of 1.5 g per kg of body weight. Blood glucose concentrations of the mice were measured at the time of injection of the peptide or vehicle control (at time point −60), at the time of glucose injection (at time point 0), and at 15, 30, 60, and 120 minutes after glucose injection.

T1 sequence (P43220 24-463, species assumed): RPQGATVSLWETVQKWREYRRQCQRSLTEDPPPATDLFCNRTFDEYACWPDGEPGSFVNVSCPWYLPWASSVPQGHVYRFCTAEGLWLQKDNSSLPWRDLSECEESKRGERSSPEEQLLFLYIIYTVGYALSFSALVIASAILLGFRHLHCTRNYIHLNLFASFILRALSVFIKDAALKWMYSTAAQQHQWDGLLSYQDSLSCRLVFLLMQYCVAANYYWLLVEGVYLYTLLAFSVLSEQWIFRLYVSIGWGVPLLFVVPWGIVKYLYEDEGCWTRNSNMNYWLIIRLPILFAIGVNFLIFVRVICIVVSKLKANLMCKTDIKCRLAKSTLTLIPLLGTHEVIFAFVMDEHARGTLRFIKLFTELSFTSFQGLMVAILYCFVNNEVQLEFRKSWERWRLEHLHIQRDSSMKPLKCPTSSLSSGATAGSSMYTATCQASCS

2 (FTSEYSKYLDERRAQDFVQWLMNTGPSSGAPPPS; lactam 7-11) [Peptide 2]
t1/2 [1]: HO-Phe-dVal (t1/2 = 50.5 hrs)

F^7,GLP(8-37): aa 7-37 of GLP-1 with the His at position 7 replaced with Phe (FAEGTFTSDVSSYLEGQAAKEFIAWLVKGRG; Glucagon-like peptide 1(7-37); UniProt P01275 98-128, looked up, variant H7F)
potency of native GLP-1 ([2]; relative to native GLP): 10%

HAEGTFTSDVSSYLEGQAAKEFIAWLVKGRGKRNRNNIA (listed as Homo sapiens) [GLP-oxyntomodulin]
potency relative to native GLP-1 [2]: at least as potent as the native GLP-1 peptide

H^7AEGTFTSDVSSYLEGQAAKEFIAWLVKGXPSSGAPPPS-amide [GLP(7-36)-CEX amide]
potency relative to native GLP-1 [2]: approximately ten times more potent in vitro than the native GLP-1 sequence

Peptide A: prodrug of Peptide B, d-Phe-dPhe attached via the O-terminus; SEQ ID NO: 645 ({dF-dF-PLA}-[Aib]EGTFTSDVSSYLEEQAAKEFIAWLVKGRPSSGAPPPS-NH2; also: dF-PLA joined by ester bond)
blood glucose of prodrug form versus corresponding non-prodrug form [3]: higher than the blood glucose levels of mice injected with the corresponding non-prodrug forms of the peptides

Peptide C: prodrug of Peptide B, d-Phe-d-Val attached via the O-terminus; SEQ ID NO: 647 ({dF-dV-PLA}-[Aib]EGTFTSDVSSYLEEQAAKEFIAWLVKGRPSSGAPPPS-NH2; also: dV-PLA joined by ester bond)
blood glucose of prodrug form versus corresponding non-prodrug form [3]: higher than the blood glucose levels of mice injected with the corresponding non-prodrug forms of the peptides

Peptide E: prodrug of Peptide D, d-Phe-d-Val ester on Ser at position 11; SEQ ID NO: 649 (H[Aib]EGS([dV-dF])FTSDVSSYLEEQAAKEFIAWLVKGRPSSGAPPPS-NH2; N-terminus assumed; SMILES CC[C@H](C)[C@H](NC(=O)[C@H](Cc1ccccc1)NC(=O)[C@H](CCC(=O)O)NC(=O)[C@H](CCCCN)NC(=O)[C@H](C)NC(=O)[C@H](C)NC(=O)[C@H](CCC(N)=O)NC(=O)[C@H](CCC(=O)O)NC(=O)[C@H](CCC(=O)O)NC(=O)[C@H](CC(C)C)NC(=O)[C@H](Cc1ccc(O)cc1)NC(=O)[C@H](CO)NC(=O)[C@H](CO)NC(=O)[C@@H](NC(=O)[C@H](CC(=O)O)NC(=O)[C@H](CO)NC(=O)[C@@H](NC(=O)[C@H](Cc1ccccc1)NC(=O)[C@H](COC(=O)[C@H](NC(=O)[C@H](N)Cc1ccccc1)C(C)C)NC(=O)CNC(=O)[C@H](CCC(=O)O)NC(=O)C(C)(C)NC(=O)[C@@H](N)Cc1c[nH]cn1)[C@@H](C)O)C(C)C)C(=O)N[C@@H](C)C(=O)N[C@@H](Cc1c[nH]c2ccccc12)C(=O)N[C@@H](CC(C)C)C(=O)N[C@H](C(=O)N[C@@H](CCCCN)C(=O)NCC(=O)N[C@@H](CCCNC(=N)N)C(=O)N1CCC[C@H]1C(=O)N[C@@H](CO)C(=O)N[C@@H](CO)C(=O)NCC(=O)N[C@@H](C)C(=O)N1CCC[C@H]1C(=O)N1CCC[C@H]1C(=O)N1CCC[C@H]1C(=O)N[C@@H](CO)C(N)=O)C(C)C)
blood glucose of prodrug form versus corresponding non-prodrug form [3]: higher than the blood glucose levels of mice injected with the corresponding non-prodrug forms of the peptides

Peptide F-Peg: Peptide F sequence with Cys at 30 linked to a 40 kDa PEG; SEQ ID NO: 655 ([Desaminohistidyl]SEGTFTSDVSSYLEEQAAKEFIC(PEG 40 kDa)WLVKGRPSSGAPPPS-NH2)
total efficacy over a week study [4]: comparable | total food intake [4]: decreased | blood glucose concentrations versus vehicle control [5]: less as compared to the blood glucose levels of mice injected with vehicle control

Peptide G-Peg: pegylated prodrug, d-Phe-d-Val ester on Ser at position 8; SEQ ID NO: 656 ([Desaminohistidyl]S([dV-dF])EGTFTSDVSSYLEEQAAKEFIC(PEG 40 kDa)WLVKGRPSSGAPPPS-NH2)
total efficacy over a week study [4]: comparable | total food intake [4]: decreased | blood glucose concentrations versus vehicle control [5]: less as compared to the blood glucose levels of mice injected with vehicle control

Peptide G: prodrug of Peptide F, d-Phe-dVal ester on Ser at position 2 of Peptide F; SEQ ID NO: 651 ([Desaminohistidyl]S([dV-dF])EGTFTSDVSSYLEEQAAKEFIAWLVKGRPSSGAPPPS-NH2; SMILES CC[C@H](C)[C@H](NC(=O)[C@H](Cc1ccccc1)NC(=O)[C@H](CCC(=O)O)NC(=O)[C@H](CCCCN)NC(=O)[C@H](C)NC(=O)[C@H](C)NC(=O)[C@H](CCC(N)=O)NC(=O)[C@H](CCC(=O)O)NC(=O)[C@H](CCC(=O)O)NC(=O)[C@H](CC(C)C)NC(=O)[C@H](Cc1ccc(O)cc1)NC(=O)[C@H](CO)NC(=O)[C@H](CO)NC(=O)[C@@H](NC(=O)[C@H](CC(=O)O)NC(=O)[C@H](CO)NC(=O)[C@@H](NC(=O)[C@H](Cc1ccccc1)NC(=O)[C@@H](NC(=O)CNC(=O)[C@H](CCC(=O)O)NC(=O)[C@H](COC(=O)[C@H](NC(=O)[C@H](N)Cc1ccccc1)C(C)C)NC(=O)CCc1c[nH]cn1)[C@@H](C)O)[C@@H](C)O)C(C)C)C(=O)N[C@@H](C)C(=O)N[C@@H](Cc1c[nH]c2ccccc12)C(=O)N[C@@H](CC(C)C)C(=O)N[C@H](C(=O)N[C@@H](CCCCN)C(=O)NCC(=O)N[C@@H](CCCNC(=N)N)C(=O)N1CCC[C@H]1C(=O)N[C@@H](CO)C(=O)N[C@@H](CO)C(=O)NCC(=O)N[C@@H](C)C(=O)N1CCC[C@H]1C(=O)N1CCC[C@H]1C(=O)N1CCC[C@H]1C(=O)N[C@@H](CO)C(N)=O)C(C)C)
blood glucose of prodrug form versus corresponding non-prodrug form [3]: higher than the blood glucose levels of mice injected with its corresponding non-prodrug form

Peptide Y: GLP-1-based peptide with Cys at 30 linked to a 40 kDa PEG; SEQ ID NO: 653 (H[Aib]EGTFTSDVSSYLEEQAAKEFIC(PEG 40 kDa)WLVKGRPSSGAPPPS-NH2)
potency in decreasing appetite and decreasing body weight ([4]; one week): most potent of the four peptides in decreasing appetite and decreasing body weight | total food intake [4]: decreased | blood glucose concentrations versus vehicle control [5]: less as compared to the blood glucose levels of mice injected with vehicle control

Peptide Z: pegylated prodrug, d-Phe-d-Val ester on Ser at position 11; SEQ ID NO: 654 (H[Aib]EGS([dV-dF])FTSDVSSYLEEQAAKEFIC(PEG 40 kDa)WLVKGRPSSGAPPPS-NH2)
total food intake [4]: decreased | blood glucose concentrations versus vehicle control [5]: less as compared to the blood glucose levels of mice injected with vehicle control
